Experimental data published in PubChem BioAssay AID342 (DTP/NCI, 2004).
Where “and” joins values, the source holds several entries; their conditions need not be identical. Equal values may be shown once.

Tested on: Swiss mice, Sarcoma 180 sc, mean tumor weight T/C
Test: NCI In Vivo Anticancer Drug Screen. Data for tumor model Sarcoma 180 (subcutaneous) in Swiss mice
Conditions: endpoint: mean tumor weight, higher = larger tumour
Summary of the method: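 Readout is the ratio of treated-group measurement to vehicle-control measurement (T/C), based on survival or tumor size in mice carrying transplanted tumors.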

What does the source list for `C=C(C)C(=O)O[C@H]1CC2=C[C@@H](C[C@@]3(C)O[C@@H]3[C@H]3OC(=O)C(=C)[C@@H]31)OC2=O`?
T/C (dose: 2.5 mg/kg/injection, schedule: Q01DX007 (ip), vehicle: saline): 105 % of control; T/C (dose: 5.0 mg/kg/injection, schedule: Q01DX007 (ip), vehicle: saline): 106 % of control; T/C (dose: 10.0 mg/kg/injection, schedule: Q01DX007 (ip), vehicle: saline): 100 % of control

How did the T/C (dose: 1:40.0 dilution, schedule: Q01DX007 (ip), vehicle: water) turn out when `CC(=O)OC1(C)CC(C)C(=O)C(C(O)CC2CC(=O)NC(=O)C2)C1` (centres undefined) was run?
Its T/C is 122 % of control.

What about the T/C (dose: 1:2000.0 dilution, schedule: Q01DX007 (ip), vehicle: water) of the same molecule?
The T/C was 79 % of control and 92 % of control.

What about the T/C (dose: 1:4000.0 dilution, schedule: Q01DX007 (ip), vehicle: water) of the same molecule?
Its T/C is 49 % of control.

Which T/C (dose: 100.0 mg/kg/injection, schedule: Q#A X014 (im), vehicle: other) does the source give for `O=C1c2ccccc2C(=O)c2c1c(O)c1ccccc1c2O` here?
The T/C was 87 % of control.

And the T/C (dose: 100.0 mg/kg/injection, schedule: Q#A X014 (sc), vehicle: other)?
The T/C was 70 % of control.

And the T/C (dose: 200.0 mg/kg/injection, schedule: Q#A X014 (im), vehicle: other)?
The T/C was 109 % of control.

And the T/C (dose: 200.0 mg/kg/injection, schedule: Q#A X014 (sc), vehicle: other)?
Its T/C is 66 % of control.

And the T/C (dose: 300.0 mg/kg/injection, schedule: Q#A X014 (im), vehicle: other)?
Its T/C is 114 % of control.

And the T/C (dose: 300.0 mg/kg/injection, schedule: Q#A X014 (sc), vehicle: other)?
The T/C was 64 % of control.

And the T/C (dose: 400.0 mg/kg/injection, schedule: Q#A X014 (im), vehicle: other)?
The T/C was 90 % of control.

What about the T/C (dose: 400.0 mg/kg/injection, schedule: Q#A X014 (sc), vehicle: other) of the same molecule?
The T/C was 65 % of control.

And the T/C (dose: 500.0 mg/kg/injection, schedule: Q#A X014 (oral), vehicle: other)?
The T/C was 72 % of control.

And the T/C (dose: 750.0 mg/kg/injection, schedule: Q#A X014 (oral), vehicle: other)?
Its T/C is 69 % of control.

With `Nc1cc(SCc2ccccc2)nc(N)n1` as the molecule, how does the T/C (dose: 18.75 mg/kg/injection, schedule: Q#A X014 (ip), vehicle: methylcellulose (MC)) read?
The T/C was 52 % of control.

And the T/C (dose: 37.5 mg/kg/injection, schedule: Q#A X014 (ip), vehicle: methylcellulose (MC))?
The T/C was 70 % of control.

And the T/C (dose: 66.5 mg/kg/injection, schedule: Q#A X014 (ip), vehicle: methylcellulose (MC))?
Its T/C is 29 % of control.

What about the T/C (dose: 75.0 mg/kg/injection, schedule: Q#A X014 (ip), vehicle: methylcellulose (MC)) of the same molecule?
Its T/C is 68 % of control.

What about the T/C (dose: 100.0 mg/kg/injection, schedule: Q#A X014 (ip), vehicle: methylcellulose (MC)) of the same molecule?
The T/C was 40 % of control.

What about the T/C (dose: 225.0 mg/kg/injection, schedule: Q#A X014 (ip), vehicle: methylcellulose (MC)) of the same molecule?
The T/C was 35 % of control.

What does the source list for `CN=C(N)/N=C(\N)Nc1cc2ccccc2c2ccccc12`?
T/C (dose: 1.0 mg/kg/injection, schedule: Q01DX007 (ip), vehicle: acid diluted with saline): 89 % of control; T/C (dose: 2.0 mg/kg/injection, schedule: Q01DX007 (ip), vehicle: acid diluted with saline): 93 % of control; T/C (dose: 4.0 mg/kg/injection, schedule: Q01DX007 (ip), vehicle: acid diluted with saline): 92 % of control

How did the T/C (dose: 3.0 mg/kg/injection, schedule: Q#A X014 (ip), vehicle: carboxymethylcellulose (CMC)) turn out when `C[C@@H]1C[C@@H]([C@H](O)CC2CC(=O)NC(=O)C2)C(=O)[C@@H](C)C1` was run?
The T/C was 79 % of control and 92 % of control.

And the T/C (dose: 6.25 mg/kg/injection, schedule: Q#A X014 (ip), vehicle: carboxymethylcellulose (CMC))?
The T/C was 77 % of control.

And the T/C (dose: 9.6 mg/kg/injection, schedule: Q01DX007 (ip), vehicle: carboxymethylcellulose (CMC))?
The T/C was 85 % of control and 96 % of control and 106 % of control.

And the T/C (dose: 12.0 mg/kg/injection, schedule: Q01DX007 (ip), vehicle: carboxymethylcellulose (CMC))?
Its T/C is 100 % of control (2×) and 122 % of control.

What about the T/C (dose: 12.0 mg/kg/injection, schedule: Q#A X014 (ip), vehicle: carboxymethylcellulose (CMC)) of the same molecule?
Its T/C is 38 % of control and 63 % of control.

What about the T/C (dose: 12.5 mg/kg/injection, schedule: Q#A X014 (ip), vehicle: carboxymethylcellulose (CMC)) of the same molecule?
The T/C was 68 % of control.

And the T/C (dose: 24.0 mg/kg/injection, schedule: Q01DX007 (ip), vehicle: carboxymethylcellulose (CMC))?
Its T/C is 58 % of control and 60 % of control and 65 % of control.

What does the source list for `NC(=O)SCC(=O)Nc1ccc2ncccc2c1`?
T/C (dose: 42.0 mg/kg/injection, schedule: Q#A X014 (ip), vehicle: methylcellulose (MC)): 84 % of control; T/C (dose: 63.5 mg/kg/injection, schedule: Q#A X014 (ip), vehicle: methylcellulose (MC)): 76 % of control; T/C (dose: 93.5 mg/kg/injection, schedule: Q#A X014 (ip), vehicle: methylcellulose (MC)): 58 % of control; T/C (dose: 140.0 mg/kg/injection, schedule: Q#A X014 (ip), vehicle: methylcellulose (MC)): 56 % of control; T/C (dose: 250.0 mg/kg/injection, schedule: Q01DX007 (ip), vehicle: other): 87 % of control; T/C (dose: 500.0 mg/kg/injection, schedule: Q01DX007 (ip), vehicle: other): 46 % of control

`CNC(=O)NO` was tested. Which T/C (dose: 50.0 mg/kg/injection, schedule: Q01DX007 (ip), vehicle: water) did it give?
Its T/C is 100 % of control.

What about the T/C (dose: 100.0 mg/kg/injection, schedule: Q01DX007 (ip), vehicle: water) of the same molecule?
Its T/C is 109 % of control.

What about the T/C (dose: 200.0 mg/kg/injection, schedule: Q01DX007 (ip), vehicle: water) of the same molecule?
The T/C was 95 % of control.

And the T/C (dose: 400.0 mg/kg/injection, schedule: Q01DX007 (ip), vehicle: water)?
The T/C was 60 % of control.

For `Nc1ncnc2c1ncn2C1OC(CO)CC1O` (centres undefined), which T/C (dose: 37.0 mg/kg/injection, schedule: Q01DX007 (ip), vehicle: carboxymethylcellulose (CMC)) is on record?
Its T/C is 104 % of control.

And the T/C (dose: 75.0 mg/kg/injection, schedule: Q01DX007 (ip), vehicle: carboxymethylcellulose (CMC))?
The T/C was 122 % of control.

And the T/C (dose: 150.0 mg/kg/injection, schedule: Q01DX007 (ip), vehicle: carboxymethylcellulose (CMC))?
The T/C was 80 % of control.

What about the T/C (dose: 300.0 mg/kg/injection, schedule: Q01DX007 (ip), vehicle: carboxymethylcellulose (CMC)) of the same molecule?
The T/C was 53 % of control.

What does the source list for `O=C1c2cc(Cl)ccc2-c2c(Cl)cc(Cl)cc21`?
T/C (dose: 25.0 mg/kg/injection, schedule: Q01DX007 (ip), vehicle: methylcellulose (MC)): 100 % of control; T/C (dose: 43.0 mg/kg/injection, schedule: Q01DX007 (ip), vehicle: carboxymethylcellulose (CMC)): 76 % of control; T/C (dose: 66.0 mg/kg/injection, schedule: Q01DX007 (ip), vehicle: carboxymethylcellulose (CMC)): 65 % of control; T/C (dose: 98.0 mg/kg/injection, schedule: Q01DX007 (ip), vehicle: carboxymethylcellulose (CMC)): 44 % of control and 50 % of control; T/C (dose: 147.0 mg/kg/injection, schedule: Q01DX007 (ip), vehicle: carboxymethylcellulose (CMC)): 36 % of control; T/C (dose: 149.0 mg/kg/injection, schedule: Q01DX007 (ip), vehicle: carboxymethylcellulose (CMC)): 59 % of control; T/C (dose: 222.0 mg/kg/injection, schedule: Q01DX007 (ip), vehicle: carboxymethylcellulose (CMC)): 30 % of control and 44 % of control; T/C (dose: 222.0 mg/kg/injection, schedule: Q01DX007 (ip), vehicle: other): 48 % of control; T/C (dose: 333.0 mg/kg/injection, schedule: Q01DX007 (ip), vehicle: carboxymethylcellulose (CMC)): 25 % of control and 32 % of control; T/C (dose: 333.0 mg/kg/injection, schedule: Q01DX007 (ip), vehicle: other): 39 % of control; T/C (dose: 500.0 mg/kg/injection, schedule: Q01DX007 (ip), vehicle: carboxymethylcellulose (CMC)): 22 % of control; T/C (dose: 750.0 mg/kg/injection, schedule: Q01DX007 (ip), vehicle: other): 27 % of control

With `CCCCNP(=O)(N1CC1C)N1CC1C` (centres undefined) as the molecule, how does the T/C (dose: 7.0 mg/kg/injection, schedule: Q#A X014 (ip), vehicle: saline) read?
The T/C was 64 % of control.

And the T/C (dose: 10.5 mg/kg/injection, schedule: Q#A X014 (ip), vehicle: saline)?
Its T/C is 62 % of control.

What about the T/C (dose: 15.5 mg/kg/injection, schedule: Q#A X014 (ip), vehicle: saline) of the same molecule?
The T/C was 50 % of control.

And the T/C (dose: 23.5 mg/kg/injection, schedule: Q#A X014 (ip), vehicle: saline)?
Its T/C is 39 % of control.

What does the source list for `O=C(O)CC[S-].[Ag+]`?
T/C (dose: 187.5 mg/kg/injection, schedule: Q#A X014 (ip), vehicle: methylcellulose (MC)): 59 % of control and 68 % of control; T/C (dose: 281.0 mg/kg/injection, schedule: Q#A X014 (ip), vehicle: methylcellulose (MC)): 69 % of control

Which results are given for `COc1cc([C@@H]2c3cc4c(cc3[C@H](O)[C@H]3COC(=O)[C@H]23)OCO4)cc(OC)c1OC`?
T/C (dose: 0.45 mg/kg/injection, schedule: Q01DX007 (ip), vehicle: carboxymethylcellulose (CMC)): 90 % of control; T/C (dose: 0.9 mg/kg/injection, schedule: Q01DX007 (ip), vehicle: carboxymethylcellulose (CMC)): 92 % of control; T/C (dose: 175.0 micrograms/kg/injection, schedule: Q01DX007 (ip), vehicle: carboxymethylcellulose (CMC)): 88 % of control; T/C (dose: 350.0 micrograms/kg/injection, schedule: Q01DX007 (ip), vehicle: carboxymethylcellulose (CMC)): 77 % of control; T/C (dose: 1400.0 micrograms/kg/injection, schedule: Q01DX007 (ip), vehicle: carboxymethylcellulose (CMC)): 71 % of control
